Experimental data from PubChem BioAssay (NCI).
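Compound exposure: 48 hours, 5 concentrations, 96-well plates. TGI denotes the concentration required for complete inhibition of growth.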

Key:
Experiment in all cases: inhibition of tumour cell growth, NCI panel, 48 h
NCI-H23 lung = test system: NCI-H23 lung
BT-549 breast = test system: BT-549 breast
HOP-92 NSCLC = test system: HOP-92 NSCLC
A498 renal = test system: A498 renal
HL-60(TB) leukemia = test system: HL-60(TB) leukemia
OVCAR-5 ovarian = test system: OVCAR-5 ovarian
MDA-MB-231 breast = test system: MDA-MB-231 breast
HCT-116 colon = test system: HCT-116 colon
MOLT-4 leukemia = test system: MOLT-4 leukemia
SR leukemia = test system: SR leukemia
SW-620 colon = test system: SW-620 colon
KM12 colon = test system: KM12 colon
SNB-19 CNS = test system: SNB-19 CNS
HS 578T breast = test system: HS 578T breast
MDA-MB-435 = test system: MDA-MB-435
U251 CNS = test system: U251 CNS
UO-31 renal = test system: UO-31 renal
M14 melanoma = test system: M14 melanoma
OVCAR-3 ovarian = test system: OVCAR-3 ovarian
786-0 renal = test system: 786-0 renal
NCI/ADR-RES ovarian = test system: NCI/ADR-RES ovarian
LOX IMVI melanoma = test system: LOX IMVI melanoma
NCI-H226 lung = test system: NCI-H226 lung
HCT-15 colon = test system: HCT-15 colon
SK-OV-3 ovarian = test system: SK-OV-3 ovarian
NCI-H460 lung = test system: NCI-H460 lung
SK-MEL-28 melanoma = test system: SK-MEL-28 melanoma
MCF7 breast = test system: MCF7 breast
HCC-2998 colon = test system: HCC-2998 colon
OVCAR-8 ovarian = test system: OVCAR-8 ovarian
SF-268 CNS = test system: SF-268 CNS
OVCAR-4 ovarian = test system: OVCAR-4 ovarian
EKVX NSCLC = test system: EKVX NSCLC
RPMI-8226 leukemia = test system: RPMI-8226 leukemia
DU-145 prostate = test system: DU-145 prostate
UACC-62 melanoma = test system: UACC-62 melanoma
K-562 leukemia = test system: K-562 leukemia
SF-295 CNS = test system: SF-295 CNS
HOP-62 NSCLC = test system: HOP-62 NSCLC
IGROV1 ovarian = test system: IGROV1 ovarian
ACHN renal = test system: ACHN renal
UACC-257 melanoma = test system: UACC-257 melanoma
SK-MEL-5 melanoma = test system: SK-MEL-5 melanoma
COLO 205 colon = test system: COLO 205 colon
MDA-N = test system: MDA-N
CAKI-1 renal = test system: CAKI-1 renal
CCRF-CEM leukemia = test system: CCRF-CEM leukemia
A549 NSCLC = test system: A549 NSCLC
SNB-75 CNS = test system: SNB-75 CNS
PC-3 prostate = test system: PC-3 prostate
RXF 393 renal = test system: RXF 393 renal
SK-MEL-2 melanoma = test system: SK-MEL-2 melanoma
TK-10 renal = test system: TK-10 renal
HT29 colon = test system: HT29 colon
SN12C renal = test system: SN12C renal
MALME-3M melanoma = test system: MALME-3M melanoma
SF-539 CNS = test system: SF-539 CNS
NCI-H522 lung = test system: NCI-H522 lung
T-47D breast = test system: T-47D breast

In the case of `NC(=Nc1ccccc1)c1ccccc1N`, the TGI (NCI-H23 lung) is reported as over 100 µM, the TGI (BT-549 breast) is reported as over 100 µM and the TGI (HOP-92 NSCLC) is reported as over 100 µM. For the same compound, the TGI (A498 renal) was over 100 µM, the TGI (HL-60(TB) leukemia) was over 100 µM and the TGI (OVCAR-5 ovarian) was over 100 µM. For the same compound, the TGI (MDA-MB-231 breast) was over 100 µM, the TGI (HCT-116 colon) was over 100 µM and the TGI (MOLT-4 leukemia) was over 100 µM. It also gave a TGI (SR leukemia) of over 100 µM, a TGI (SW-620 colon) of over 100 µM and a TGI (KM12 colon) of over 100 µM. It also gave a TGI (SNB-19 CNS) of over 100 µM, a TGI (HS 578T breast) of over 100 µM and a TGI (MDA-MB-435) of over 100 µM. The TGI (U251 CNS) was over 100 µM, the TGI (UO-31 renal) was over 100 µM and the TGI (M14 melanoma) was over 100 µM. It also gave a TGI (OVCAR-3 ovarian) of over 100 µM, a TGI (786-0 renal) of over 100 µM and a TGI (NCI/ADR-RES ovarian) of over 100 µM. For the same compound, the TGI (LOX IMVI melanoma) was over 100 µM, the TGI (NCI-H226 lung) was over 100 µM and the TGI (HCT-15 colon) was over 100 µM. For the same compound, the TGI (SK-OV-3 ovarian) was over 100 µM, the TGI (NCI-H460 lung) was over 100 µM and the TGI (SK-MEL-28 melanoma) was 64.4 µM. For the same compound, the TGI (MCF7 breast) was over 100 µM, the TGI (HCC-2998 colon) was over 100 µM and the TGI (OVCAR-8 ovarian) was over 100 µM. The TGI (SF-268 CNS) was over 100 µM, the TGI (OVCAR-4 ovarian) was over 100 µM and the TGI (EKVX NSCLC) was over 100 µM. It also gave a TGI (RPMI-8226 leukemia) of over 100 µM, a TGI (DU-145 prostate) of over 100 µM and a TGI (UACC-62 melanoma) of over 100 µM. The TGI (K-562 leukemia) was over 100 µM, the TGI (SF-295 CNS) was over 100 µM and the TGI (HOP-62 NSCLC) was over 100 µM. For the same compound, the TGI (IGROV1 ovarian) was over 100 µM, the TGI (ACHN renal) was over 100 µM and the TGI (UACC-257 melanoma) was over 100 µM. It also gave a TGI (SK-MEL-5 melanoma) of over 100 µM, a TGI (COLO 205 colon) of over 100 µM and a TGI (MDA-N) of over 100 µM. The TGI (CAKI-1 renal) was over 100 µM, the TGI (CCRF-CEM leukemia) was over 100 µM and the TGI (A549 NSCLC) was over 100 µM. It also gave a TGI (SNB-75 CNS) of over 100 µM, a TGI (PC-3 prostate) of over 100 µM and a TGI (RXF 393 renal) of over 100 µM. It also gave a TGI (SK-MEL-2 melanoma) of over 100 µM, a TGI (TK-10 renal) of over 100 µM and a TGI (HT29 colon) of over 100 µM.

Compound `Cc1ccc(S(=O)(=O)n2ccc(-c3ccc4ccn(S(=O)(=O)c5ccc(C)cc5)c4c3)c2)cc1` has a TGI (NCI-H23 lung) of over 100 µM, a TGI (BT-549 breast) of over 100 µM and a TGI (A498 renal) of over 100 µM. It also gave a TGI (SN12C renal) of over 100 µM, a TGI (MALME-3M melanoma) of over 100 µM and a TGI (SF-539 CNS) of over 100 µM. For the same compound, the TGI (HL-60(TB) leukemia) was over 100 µM, the TGI (OVCAR-5 ovarian) was over 100 µM and the TGI (MDA-MB-231 breast) was over 100 µM. The TGI (HCT-116 colon) was over 100 µM, the TGI (MOLT-4 leukemia) was over 100 µM and the TGI (SR leukemia) was over 100 µM. It also gave a TGI (SW-620 colon) of over 100 µM, a TGI (KM12 colon) of over 100 µM and a TGI (SNB-19 CNS) of over 100 µM. It also gave a TGI (HS 578T breast) of over 100 µM, a TGI (MDA-MB-435) of over 100 µM and a TGI (U251 CNS) of over 100 µM. It also gave a TGI (UO-31 renal) of over 100 µM, a TGI (M14 melanoma) of over 100 µM and a TGI (OVCAR-3 ovarian) of over 100 µM. For the same compound, the TGI (786-0 renal) was over 100 µM, the TGI (NCI/ADR-RES ovarian) was over 100 µM and the TGI (LOX IMVI melanoma) was over 100 µM. It also gave a TGI (NCI-H226 lung) of over 100 µM, a TGI (HCT-15 colon) of over 100 µM and a TGI (SK-OV-3 ovarian) of over 100 µM. The TGI (MCF7 breast) was over 100 µM, the TGI (HCC-2998 colon) was over 100 µM and the TGI (OVCAR-8 ovarian) was over 100 µM. It also gave a TGI (SF-268 CNS) of over 100 µM, a TGI (OVCAR-4 ovarian) of over 100 µM and a TGI (EKVX NSCLC) of over 100 µM. It also gave a TGI (RPMI-8226 leukemia) of over 100 µM, a TGI (DU-145 prostate) of over 100 µM and a TGI (UACC-62 melanoma) of over 100 µM. The TGI (K-562 leukemia) was over 100 µM, the TGI (SF-295 CNS) was over 100 µM and the TGI (HOP-62 NSCLC) was over 100 µM. For the same compound, the TGI (IGROV1 ovarian) was over 100 µM, the TGI (ACHN renal) was over 100 µM and the TGI (UACC-257 melanoma) was over 100 µM. It also gave a TGI (SK-MEL-5 melanoma) of over 100 µM, a TGI (COLO 205 colon) of over 100 µM and a TGI (MDA-N) of over 100 µM. It also gave a TGI (CAKI-1 renal) of over 100 µM, a TGI (CCRF-CEM leukemia) of over 100 µM and a TGI (A549 NSCLC) of over 100 µM. It also gave a TGI (SNB-75 CNS) of over 100 µM, a TGI (PC-3 prostate) of over 100 µM and a TGI (RXF 393 renal) of 39.3 µM. It also gave a TGI (NCI-H522 lung) of over 100 µM, a TGI (T-47D breast) of over 100 µM and a TGI (SK-MEL-2 melanoma) of over 100 µM. For the same compound, the TGI (TK-10 renal) was over 100 µM and the TGI (HT29 colon) was over 100 µM.
